Results taken from patent publication US20210230131A1, “POLYAMINO BIARYL COMPOUNDS AND THEIR USE” (INSERM (INSTITUT NATIONAL DE LA SANTÉ ET DE LA RECHERCHE …, priority 2018, published 2021).

Experiments:
[1] = tested on: ThyTau22 mice; assay: Y-Maze short-term memory test in Thy-Tau22 mice; format: in vivo; settings: ThyTau22 mice treated one month, 1 mg/kg in drinking water; compared with compound 30
Description: Thy-Tau22 transgenic colonies (C57Bl/6J genetic background) were obtained by crossing heterozygous males C57Bl/6J with WT females. All animals were housed in a pathogen-free facility at 5 to 6 animals per cage (Techniplast Cages 1284L), with ad libitum access to food and water in a 12/12-hour light-dark cycle and maintained under a constant temperature of 22° C. For treatment, animals were randomly distributed and compound 30 or 31 was provided in the drinking water at a final concentration of 1 mg/kg, ie 12.5 μg/mL for drinking solutions taking into account an average weight of 25 g/mouse drinking 4 mL/day. […] Food consumption and bodyweight were also assessed. […]
Before any behavioral test, exploratory behavior and locomotion were evaluated in treated and untreated animals in an Openfield (OF) 25 cm×25 cm arena. […] Anxiety, which could interfere with the memory test, was evaluated using the elevated plus maze (EPM). […] Locomotion, distance, speed and velocity were measured, as well as the number of entries into each arm, time spent in open versus closed arms, percentage of open arm entries and time spent in the open arms during a 5 minutes test.
Y-Maze: Short-term memory was tested on a Y-maze. […] Parameters—total distance travelled, velocity, alternation between the arms, entries into the new, starting or other arm—were measured over 5 minutes. […]

[2] = tested on: AICD; assay: AICD by Western blot in SY5Y-APP695WT cells; format: cell-based, human; settings: AICD increase compared to chloroquine ([AICD]compound/[AICD]CQ) at 3 μM; mean of at least three experiments
Description: Antibodies. Primary antibodies used in this study for western-blot analysis included a homemade rabbit antiserum against the last 17 amino acids of human APP protein sequence, named APP-Cter-C17 (1/5000 in TBS-M). Anti-β-actin (1/10 000 in TBS-M) was obtained from Sigma. Anti-LC3B (1/2000 in TBS-BSA) and anti-p62/SQSTM1 (1/2000 in TBS-M) antibodies were purchased from Cell Signaling Technology. Secondary antibodies (peroxidase-labeled goat anti-rabbit IgG, 1/5000 or peroxidase-labeled horse anti-mouse IgG, 1/50000 in TBS-T) were obtained from Vector Laboratories.
Cell culture and treatment. The human neuroblastoma cell line SY5Y-APP^695WT was maintained in Dulbecco's modified Eagle medium (DMEM, high glucose, pyruvate—GIBCO by Life Technologies) supplemented with 10% foetal bovine serum, 2 mM L-glutamine, 1 mM non-essential amino acids and penicillin/streptomycin (GIBCO by Life Technologies) at 37° C. in a 5% CO2 humidified incubator. SY5Y-APP^695WT cells were maintained in 75 cm^2 culture flasks (Falcon) with supplemented DMEM medium until they reached 80% of confluence 24 h before treatment.
For drug treatment, cells were plated at a rate of 5·10^5 cells per well into 12-well plates (Falcon) and cultured with 1 mL supplemented DMEM cell medium for 24 h before drug exposure. The following day, cell medium was replaced with fresh medium containing drugs diluted at the indicated concentrations. Cells were treated for 24 h. At the end of treatments, the cell medium was collected and kept at −80° C. until use for dosage. Then, cells were rinsed once with PBS and extracted in 100 μL of Laemmli buffer (10 mM Tris, 20% glycerol and 2% Sodium dodecyl sulfate) using a cell-scraper. The cell lysate was further sonicated (30 pulses of 0.5 s, 60 Hz) for 5 min. Total protein concentration was determined using the Pierce BCA Protein Assay Kit (Thermo scientific) according to the manufacturer's instructions. Samples were stored at −80° C. until analysis.
Western Blot Analysis. Cell protein lysates were prepared for western-blot analysis by diluting the sample with 1 volume of NuPAGE® lithium dodecyl sulfate (LDS) 2× sample buffer supplemented with 20% NuPAGE® sample reducing agents (Invitrogen). Samples were heat 10 min at 100° C. 10 μg of total proteins per well were loaded onto a precast 4-12% Criterion XT Bis-Tris polyacrylamide gel (Bio-Rad) and electrophoresis was achieved after applying a tension of 150 V during 90 min using a Criterion electrophoresis Cell with the NuPAGE® MOPS SDS running buffer (1×). Proteins were transferred to a nitrocellulose membrane of […] pore size (G&E Healthcare) using the Criterion blotting system and applying a tension of 100 V for 45 min. To resolve proteins of low molecular weights such as carboxy-terminal fragments of APP, 12% Criterion XT Bis-Tris polyacrylamide gels (Bio-Rad) were used and electrophoresis was performed during 70 min at 150 V in a NuPAGE® MES SDS running buffer (1×). Proteins were transferred to a nitrocellulose membrane of 0.2 μm pore size (G&E Healthcare) at 100 V for 40 min. Molecular weights calibration was achieved using molecular weight markers (Novex and Magic Marks, Life Technologies). Protein transfer and quality were determined by a reversible Ponceau Red coloration (0.2% Xylidine Ponceau Red and 3% Trichloroacetic acid). Membranes were then blocked in 25 mM Tris-HCl pH 8.0, 150 mM NaCl, 0.1% Tween-20 (v/v) (TBS-T) and 5% (w/v) of skimmed milk (TBS-M) or 5% (w/v) of bovine serum albumin (TBS-BSA) depending on the antibody during 1 h. Membrane was rinsed three-times 10 min in TBS-T before incubation with the primary antibody overnight at 4° C. Membrane was rinsed 3 times 10 min with TBS-T and then incubated with the secondary antibody for 45 min at room temperature (RT). […] Quantifications of protein expression levels were performed with ImageJ Software (NIH). […]

[3] = tested on: wild-type mice; assay: Y-Maze short-term memory test in wild-type mice; format: in vivo; settings: treated wild-type mice, 1 mg/kg in drinking water
Description: Thy-Tau22 transgenic colonies (C57Bl/6J genetic background) were obtained by crossing heterozygous males C57Bl/6J with WT females. All animals were housed in a pathogen-free facility at 5 to 6 animals per cage (Techniplast Cages 1284L), with ad libitum access to food and water in a 12/12-hour light-dark cycle and maintained under a constant temperature of 22° C. For treatment, animals were randomly distributed and compound 30 or 31 was provided in the drinking water at a final concentration of 1 mg/kg, ie […] for drinking solutions taking into account an average weight of 25 g/mouse drinking 4 mL/day. […] Food consumption and bodyweight were also assessed. In WT animals, a pilot study of drug treatment was performed for one month to establish the innocuousness of compound 30 and 31 treatments. Thy-Tau22 females were treated for 1 months, starting at 6 months of age.
Y-Maze: Short-term memory was tested on a Y-maze. The Y-maze consists of three enclosed arms surrounded by spatial clues. One arm was closed off during the learning phase. Each mouse was positioned in the Starting arm. Mice were allowed to explore the maze for 5 min. During 2 min of retention time, the closed arm was opened and the mouse was re-placed in the starting arm. […] Parameters—total distance travelled, velocity, alternation between the arms, entries into the new, starting or other arm—were measured over 5 minutes. […]

| Compound | short memory preservation at the Y-Maze task [1] | AICD vs CQ (3 μM) [2] | Y-Maze behavioral task [3] |
| --- | --- | --- | --- |
| CN(C)Cc1ccccc1-c1ccc(NCCCN2CCCCC2)c(OCCC2CCCCC2)c1 [Compound 31, 3-(2-cyclohexylethoxy)-2′-((dimethylamino)methyl)-N-(3-(piperidin-1-yl)propyl)-[1,1′-biphenyl]-4-amine] | higher short memory preservation | 0.1 | succeed in the Y-Maze behavioral task |
| CN(C)Cc1ccccc1-c1ccc(NCCCN2CCCCC2)c(OCCN2CCCCC2)c1 [Compound 30, 4-(2-[(Dimethylamino)methyl]phenyl)-2-[2-(piperidin-1-yl)ethoxy]-N-[3-(piperidin-1-yl)propyl]aniline] |  | 3.6 |  |
